Test results reported in patent US20240239812A1, “MACROCYCLIC 2-ALLYLTETRAHYDROFURANS AS INHIBITORS OF MCL-1” (JANSSEN PHARMACEUTICA NV, priority 2021, published 2024).
Like-named read-outs stand apart in the source and are kept apart here.

How the values were obtained:
[1] = target: Myeloid Cell Leukemia 1 (Mcl-1) (Homo sapiens (Human), UniProt Q07820); experiment: Terbium labeled Mcl-1 HTRF binding assay, displacement of Cy5-labeled BIM BH3 peptide; conditions: 25 pM Tb-Mcl-1, 8 nM Cy5 Bim peptide, 60 minutes at room temperature, read-out: Tb-MCL1 Ki
Myeloid Cell Leukemia 1 (Mcl-1), sequence (Q07820 whole entry): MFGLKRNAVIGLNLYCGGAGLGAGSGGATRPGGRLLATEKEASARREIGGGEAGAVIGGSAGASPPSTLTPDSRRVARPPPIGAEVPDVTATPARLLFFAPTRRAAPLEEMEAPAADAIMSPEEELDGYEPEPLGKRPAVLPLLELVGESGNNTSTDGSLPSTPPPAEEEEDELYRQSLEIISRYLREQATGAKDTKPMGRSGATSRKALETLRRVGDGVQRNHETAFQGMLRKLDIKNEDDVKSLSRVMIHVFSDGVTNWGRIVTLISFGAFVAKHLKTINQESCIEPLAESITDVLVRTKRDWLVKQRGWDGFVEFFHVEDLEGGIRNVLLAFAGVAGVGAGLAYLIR
Experimental: Terbium labeled Myeloid Cell Leukemia 1 (Mcl-1) homogeneous time-resolved fluorescence (HTRF) binding assay utilizing the BIM BH3 peptide (H2N—(C/Cy5Mal) WIAQELRRIGDEFN-OH) as the binding partner for Mcl-1.
This assay evaluated inhibition of the BH3 domain: Mcl-1 interaction by measuring the displacement of Cy5-labeled BIM BH3 peptide (H2N—(C/Cy5Mal) WIAQELRRIGDEFN-OH) in the HTRF assay format.
The following assay and stock buffers were prepared for use in the assay: (a) Stock buffer: 10 mM Tris-HCl, pH=7.5+150 mM NaCl, filtered, sterilized, and stored at 4° C.; and (b) 1× assay buffer, where the following ingredients were added fresh to stock buffer: 2 mM dithiothreitol (DTT), 0.0025% Tween-20, 0.1 mg/mL bovine serum albumin (BSA). The 1×Tb-Mcl-1+Cy5 Bim peptide solution was prepared by diluting the protein stock solution using the 1× assay buffer (b) to 25 pM Tb-Mcl-1 and 8 nM Cy5 Bim peptide.
Using the Acoustic ECHO, 100 nL of 100× test compound(s) were dispensed into individual wells of a white 384-well Perkin Elmer Proxiplate, for a final compound concentration of 1× and final DMSO concentration of 1%. Inhibitor control and neutral control (NC, 100 nL of 100% DMSO) were stamped into columns 23 and 24 of assay plate, respectively. Into each well of the plate was then dispensed 10 μL of the 1×Tb-Mcl-1+Cy5 Bim peptide solution. The plate was centrifuged with a cover plate at 1000 rpm for 1 minute, then incubated for 60 minutes at room temperature with plates covered.
The TR-FRET signal was read on an BMG PHERAStar FSX MicroPlate Reader at room temperature using the HTRF optic module (HTRF: excitation: 337 nm, light source: laser, emission A: 665 nm, emission B: 620 nm, integration start: 60 μs, integration time: 400 μs).
The BMG PHERAStar FSX MicroPlate Reader was used to measure fluorescence intensity at two emission wavelengths—665 nm and 620 nm—and report relative fluorescence units (RFU) for both emissions, as well as a ratio of the emissions (665 nm/620 nm)*10,000. The RFU values were normalized to percent inhibition as follows:
% inhibition(((NC−IC)−(compound−IC))/(NC−IC))*100
where IC (inhibitor control, low signal)=mean signal of 1× Tb-MCl-1+Cy5 Bim peptide+inhibitor control or 100% inhibition of Mcl-1; NC (neutral control, high signal)=mean signal 1×Tb-MCl-1+Cy5 Bim peptide with DMSO only or 0% inhibition
An 11-point dose response curve was generated to determine IC50 values (using GenData) based on the following equation:
where Y=% inhibition in the presence of X inhibitor concentration; Top=100% inhibition derived from the IC (mean signal of Mcl-1+inhibitor control); Bottom=0% inhibition derived from the NC (mean signal of Mcl-1+DMSO); Hillslope=Hill coefficient; and IC50=concentration of compound with 50% inhibition in relation to top/neutral control (NC).
Representative compounds of the present invention were tested according to the procedure as described above, with results as listed in the Table below (n.d. means not determined).

[2] = tested on: MOLP-8 human multiple myeloma cell line; experiment: Caspase-Glo 3/7 apoptosis induction assay in MOLP-8 cells; assay type: cell-based; conditions: caspase-3/7 activity, 2 hours at 37° C., averaged over all runs on all batches, read-out: MOLP8 AC50
Excerpt: MCL-1 is a regulator of apoptosis and is highly over-expressed in tumor cells that escape cell death. The assay evaluates the cellular potency of small-molecule compounds targeting regulators of the apoptosis pathway, primarily MCL-1, Bfl-1, Bcl-2, and other proteins of the Bcl-2 family. Protein-protein inhibitors disrupting the interaction of anti-apoptotic regulators with BH3-domain proteins initiate apoptosis.
The Caspase-Glo® 3/7 Assay is a luminescent assay that measures caspase-3 and -7 activities in purified enzyme preparations or cultures of adherent or suspension cells. The assay provides a proluminescent caspase-3/7 substrate, which contains the tetrapeptide sequence DEVD. This substrate is cleaved to release aminoluciferin, a substrate of luciferase used in the production of light. Addition of the single Caspase-Glo® 3/7 Reagent in an “add-mix-measure” format results in cell lysis, followed by caspase cleavage of the substrate and generation of a “glow-type” luminescent signal.
This assay uses the MOLP-8 human multiple myeloma cell line, which is sensitive to MCL-1 inhibition.
Cell cultures were maintained between 0.2 and 2.0×10^6 cells/mL. The cells were harvested by collection in 50 mL conical tubes. The cells were then pelleted at 500 g for 5 mins before removing supernatant and resuspension in fresh pre-warmed culture medium. The cells were counted and diluted as needed.
The assay reagent was prepared by transferring the buffer solution to the substrate vial and mixing. The solution may be stored for up to 1 week at 4° C. with negligible loss of signal.
Compounds were delivered in assay-ready plates (Proxiplate) and stored at −20° C.
Assays always include 1 reference compound plate containing reference compounds. The plates were spotted with 40 nL of compounds (0.5% DMSO final in cells; serial dilution; 30 μM highest conc. 1/3 dilution, 10 doses, duplicates). The compounds were used at room temperature and 4 μL of pre-warmed media was added to all wells except column 2 and 23. The negative control was prepared by adding 1% DMSO in media. The positive control was prepared by adding the appropriate positive control compound in final concentration of 60 μM in media. The plate was prepared by adding 4 μL negative control to column 23, 4 μL positive control to column 2, and 4 μL cell suspension to all wells in the plate. The plate with cells was then incubated at 37° C. for 2 hours. The assay signal reagent is the Caspase-Glo solution described above, and 8 μL was added to all wells. The plates were then sealed and measured after 30 minutes.
The activity of a test compound was calculated as percent change in apoptosis induction as follows: […]

SMILES	Ki [1]	AC50 [2]	AC50 ([2]; Homo sapiens, MOLP-8, 2 h)
COc1nn(C)cc1C(=O)NS1(=O)=NC(=O)c2ccc3c(c2)N(C[C@@H]2CCO[C@H]2C(CN2CCN4CCOC[C@@H]4C2)(OC)/C(F)=C/C[C@H](C)C1)C[C@@]1(CCCc2cc(Cl)ccc21)CO3 (single isomer, unassigned) [Compound 28]	0.011 nM	23.2 nM	
COc1nn(C)cc1C(=O)NS1(=O)=NC(=O)c2ccc3c(c2)N(C[C@@H]2CCO[C@H]2C(CN2CCN4CCOC[C@@H]4C2)(OC)/C(F)=C/C[C@H](C)C1)C[C@@]1(CCCc2cc(Cl)ccc21)CO3 (single isomer, unassigned) [Compound 29]	0.17 nM	702 nM	
COc1nn(C)cc1C(=O)NS1(=O)=NC(=O)c2ccc3c(c2)N(C[C@@H]2CCO[C@H]2C(CN2CCN4CCOC[C@@H]4C2)(OC)/C(F)=C/C[C@H](C)C1)C[C@@]1(CCCc2cc(Cl)ccc21)CO3 (single isomer, unassigned) [Compound 30]	0.014 nM	28.6 nM	
CO[C@H]1/C(F)=C/C[C@H](C)[C@@H](C)S(=O)(=O)NC(=O)c2ccc3c(c2)N(C[C@@H]2CCO[C@H]21)C[C@@]1(CCCc2cc(Cl)ccc21)CO3 [Compound 1]	0.218 nM		191 nM
CO[C@@H]1/C(F)=C/C[C@H](C)[C@@H](C)S(=O)(=O)NC(=O)c2ccc3c(c2)N(C[C@@H]2CCO[C@H]21)C[C@@]1(CCCc2cc(Cl)ccc21)CO3 [Compound 2]	1.13 nM		1120 nM
CO[C@H]1/C=C/C[C@H](C)[C@@H](C)S(=O)(=O)NC(=O)c2ccc3c(c2)N(C[C@@H]2CCO[C@H]21)C[C@@]1(CCCc2cc(Cl)ccc21)CO3 [Compound 3]	0.466 nM		432 nM
COCC1/C=C/C[C@H](C)[C@@H](C)S(=O)(=O)NC(=O)c2ccc3c(c2)N(C[C@@H]2CCO[C@@H]12)C[C@@]1(CCCc2cc(Cl)ccc21)CO3 (stereo partly shown) [Compound 16]	0.673 nM		1820 nM
COCC1/C=C/C[C@H](C)[C@@H](C)S(=O)(=O)NC(=O)c2ccc3c(c2)N(C[C@@H]2CCO[C@@H]12)C[C@@]1(CCCc2cc(Cl)ccc21)CO3 (stereo partly shown) [Compound 17]	0.678 nM	2820 nM	
